Assay results: paper PMC5681660, “Reduced hepatitis B and D viral entry using clinically applied drugs as novel inhibitors of the bile acid transporter NTCP” (Scientific Reports, 2017)
Structures can show the parent of a compound that is named as a salt. Where two headings read alike, the source gives them in different places.

Tests used:
human NTCP [1] = molecular target: T1, human NTCP (Homo sapiens, UniProt Q14973); test: Screening taurocholate uptake assay (96-well, [14C]taurocholate, 10 µM drug)
T1 sequence (Q14973 1-349): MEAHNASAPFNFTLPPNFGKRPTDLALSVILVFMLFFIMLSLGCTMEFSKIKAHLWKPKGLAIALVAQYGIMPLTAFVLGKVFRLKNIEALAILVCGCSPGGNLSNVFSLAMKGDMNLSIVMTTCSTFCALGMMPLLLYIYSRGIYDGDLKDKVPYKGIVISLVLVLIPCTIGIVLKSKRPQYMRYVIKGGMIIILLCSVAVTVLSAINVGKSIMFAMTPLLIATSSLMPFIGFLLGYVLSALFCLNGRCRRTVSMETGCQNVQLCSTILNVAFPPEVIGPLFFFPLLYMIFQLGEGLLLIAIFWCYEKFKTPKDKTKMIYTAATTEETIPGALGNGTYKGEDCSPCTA

human NTCP [2] = molecular target: T1, human NTCP; test: Screening fluorescent competitive Myrcludex B-FITC binding assay (96-well, 10 µM drug)
[3] = Prestwick library screen, taurocholate uptake, 10 µM drug
[4] = ranking score beside the functional and binding assay B-scores of the screen
[5] = Prestwick library screen, Myrcludex B-FITC binding, 10 µM drug
[6] = Prestwick library screen, 10 µM drug, B-score of taurocholate uptake
[7] = combined ranking from functional and binding assay B-scores
[8] = Prestwick library screen, 10 µM drug, B-score of Myrcludex B-FITC binding
[9] = combined ranking from functional and binding screening assays
[10] = screen, 10 µM drug, taurocholate uptake
[11] = screen, 10 µM drug, Myrcludex B-FITC binding

CCCN(CCC)S(=O)(=O)c1ccc(C(=O)O)cc1 [Probenecid]
B-score functional assay (human NTCP [1]; [3]): -0.194 | Ranking score (human NTCP [1]; [4]): 677.591 | B-score binding assay (human NTCP [2]; [5]): 0.597

CC(C)(Sc1cc(C(C)(C)C)c(O)c(C(C)(C)C)c1)Sc1cc(C(C)(C)C)c(O)c(C(C)(C)C)c1 [Probucol]
B-score functional assay (human NTCP [1]; [6]): 0.089 | Ranking score (human NTCP [1]; [7]): 969.367 | B-score binding assay (human NTCP [2]; [8]): 3.305

CCN(CC)CCNC(=O)c1ccc(N)cc1 [Procainamide hydrochloride]
B-score functional assay (human NTCP [1]; [3]): 0.646 | Ranking score (human NTCP [1]; [4]): 672.44 | B-score binding assay (human NTCP [2]; [5]): -0.246

CCN(CC)CCOC(=O)c1ccc(N)cc1 [Procaine hydrochloride]
Ranking score (human NTCP [1]; [9]): 459.439 | B-score functional assay (human NTCP [1]; [10]): -1.181 | B-score binding assay (human NTCP [2]; [11]): 0.574

CNNCc1ccc(C(=O)NC(C)C)cc1 [Procarbazine hydrochloride]
Ranking score (human NTCP [1]; [9]): 345.534 | B-score functional assay (human NTCP [1]; [10]): -0.792 | B-score binding assay (human NTCP [2]; [11]): -0.424

[H]/N=C(\N/C(=N/[H])Nc1ccc(Cl)cc1)NC(C)C [Proguanil hydrochloride]
Ranking score (human NTCP [1]; [9]): 309.176 | B-score functional assay (human NTCP [1]; [10]): -0.025 | B-score binding assay (human NTCP [2]; [11]): -1.489

CN(C)CCCN1c2ccccc2Sc2ccccc21 [Promazine hydrochloride]
B-score functional assay (human NTCP [1]): 0.194 | Ranking score (human NTCP [1]): 494.272 | B-score binding assay (human NTCP [2]): -0.725

CC(CN1c2ccccc2Sc2ccccc21)N(C)C (centres unmarked) [Promethazine hydrochloride]
B-score functional assay (human NTCP [1]; [6]): -0.002 | Ranking score (human NTCP [1]; [7]): 866.133 | B-score binding assay (human NTCP [2]; [8]): 1.811

CC(C)NCC(O)c1ccc2ccccc2c1.Cl (centres unmarked) [Pronethalol hydrochloride]
Ranking score (human NTCP [1]; [9]): 409.31 | B-score functional assay (human NTCP [1]; [10]): -0.999 | B-score binding assay (human NTCP [2]; [11]): 0.008

CCCNCC(O)COc1ccccc1C(=O)CCc1ccccc1 (centres unmarked) [Propafenone hydrochloride]
B-score functional assay (human NTCP [1]; [3]): -0.211 | Ranking score (human NTCP [1]; [4]): 771.984 | B-score binding assay (human NTCP [2]; [5]): 2.716

CCCOc1ccc(C(=O)OCCN(CC)CC)cc1N [Proparacaine hydrochloride]
B-score functional assay (human NTCP [1]; [6]): 0.236 | Ranking score (human NTCP [1]; [7]): 984.211 | B-score binding assay (human NTCP [2]; [8]): 1.832

CC(C)c1cccc(C(C)C)c1O [Propofol]
B-score functional assay (human NTCP [1]): -4.147 | Ranking score (human NTCP [1]): 144.551 | B-score binding assay (human NTCP [2]): -0.036

CCCc1cc(=O)[nH]c(=S)[nH]1 [Propylthiouracil]
B-score functional assay (human NTCP [1]; [3]): 0.437 | Ranking score (human NTCP [1]; [4]): 823.744 | B-score binding assay (human NTCP [2]; [5]): 0.14

CCCc1cc(C(N)=S)ccn1 [Prothionamide]
B-score functional assay (human NTCP [1]; [3]): -0.17 | Ranking score (human NTCP [1]; [4]): 776.121 | B-score binding assay (human NTCP [2]; [5]): 2.241

CNCCCC1c2ccccc2C=Cc2ccccc21 [Protriptyline hydrochloride]
Ranking score (human NTCP [1]; [9]): 390.896 | B-score functional assay (human NTCP [1]; [10]): -0.483 | B-score binding assay (human NTCP [2]; [11]): -0.431

Cc1ncc(CO)c(CO)c1O [Pyridoxine hydrochloride]
B-score functional assay (human NTCP [1]; [6]): 0.632 | Ranking score (human NTCP [1]; [7]): 1004.23 | B-score binding assay (human NTCP [2]; [8]): 1.062

COc1ccc(CN(CCN(C)C)c2ccccn2)cc1 [Pyrilamine maleate]
Ranking score (human NTCP [1]; [9]): 458.048 | B-score functional assay (human NTCP [1]; [10]): -0.86 | B-score binding assay (human NTCP [2]; [11]): 0.121

CCN(CC)CCCC(C)Nc1c2ccc(Cl)cc2nc2ccc(OC)cc12.Cl.Cl (centres unmarked) [Quinacrine dihydrochloride hydrate]
Ranking score (human NTCP [1]; [9]): 399.375 | B-score functional assay (human NTCP [1]; [10]): -2.093 | B-score binding assay (human NTCP [2]; [11]): 7.101

CCOC(=O)[C@H](CCc1ccccc1)N[C@@H](C)C(=O)N1Cc2ccccc2C[C@H]1C(=O)O [Quinapril HCl]
B-score functional assay (human NTCP [1]; [6]): 2.971 | Ranking score (human NTCP [1]; [7]): 1103.9 | B-score binding assay (human NTCP [2]; [8]): 0.741

CCC1NC(=O)c2cc(S(N)(=O)=O)c(Cl)cc2N1 (centres unmarked) [Quinethazone]
B-score functional assay (human NTCP [1]; [3]): 1.708 | Ranking score (human NTCP [1]; [4]): 787.128 | B-score binding assay (human NTCP [2]; [5]): -0.124

C=C[C@H]1CN2CC[C@H]1C[C@@H]2[C@@H](O)c1ccnc2ccc(OC)cc12.Cl.O [Quinidine hydrochloride monohydrate]
Ranking score (human NTCP [1]; [4]): 834.825 | B-score binding assay (human NTCP [2]; [5]): -0.002

O=C(O)/C=C\C(=O)O.O=C(O)/C=C\C(=O)O.c1ccc2nc(N3CCNCC3)ccc2c1 [Quipazine dimaleate salt]
B-score functional assay (human NTCP [1]; [6]): 0.305 | Ranking score (human NTCP [1]; [7]): 954.17 | B-score binding assay (human NTCP [2]; [8]): 1.213

COCCCOc1ccnc(C[S+]([O-])c2nc3ccccc3[nH]2)c1C (centres unmarked) [Rabeprazole Sodium salt]
B-score functional assay (human NTCP [1]; [3]): 1.371 | Ranking score (human NTCP [1]; [4]): 764.457 | B-score binding assay (human NTCP [2]; [5]): -0.144

CCN1CCC[C@H]1CNC(=O)c1c(O)c(Cl)cc(Cl)c1OC [Raclopride]
B-score functional assay (human NTCP [1]; [6]): 0.507 | Ranking score (human NTCP [1]; [7]): 891.19 | B-score binding assay (human NTCP [2]; [8]): 0.374

Cc1nc2ccc(CN(C)c3ccc(C(=O)N[C@@H](CCC(=O)O)C(=O)O)s3)cc2c(=O)[nH]1 [Raltitrexed]
Ranking score (human NTCP [1]; [9]): 413.367 | B-score functional assay (human NTCP [1]; [10]): -1.033 | B-score binding assay (human NTCP [2]; [11]): 0.04

CCOC(=O)[C@H](CCc1ccccc1)N[C@@H](C)C(=O)N1[C@H](C(=O)O)C[C@@H]2CCC[C@@H]21 [Ramipril]
B-score functional assay (human NTCP [1]; [6]): 0.852 | Ranking score (human NTCP [1]; [7]): 1101.41 | B-score binding assay (human NTCP [2]; [8]): 1.901

C#CCN[C@@H]1CCc2ccccc21 [Rasagiline]
B-score functional assay (human NTCP [1]; [3]): -0.098 | Ranking score (human NTCP [1]; [4]): 667.796 | B-score binding assay (human NTCP [2]; [5]): 0.275

O=C(NC(Cc1cc(=O)[nH]c2ccccc12)C(=O)O)c1ccc(Cl)cc1 (centres unmarked) [Rebamipide]
B-score functional assay (human NTCP [1]; [6]): 0.089 | Ranking score (human NTCP [1]; [7]): 955.076 | B-score binding assay (human NTCP [2]; [8]): 2.49

CCOc1ccccc1OC(c1ccccc1)C1CNCCO1.CS(=O)(=O)O (centres unmarked) [Reboxetine mesylate]
B-score functional assay (human NTCP [1]; [3]): 1.175 | Ranking score (human NTCP [1]; [4]): 814.737 | B-score binding assay (human NTCP [2]; [5]): -0.028

COC(=O)[C@H]1[C@H]2C[C@@H]3c4[nH]c5cc(OC)ccc5c4CCN3C[C@H]2C[C@@H](OC(=O)c2cc(OC)c(OC)c(OC)c2)[C@@H]1OC [Reserpine]
B-score functional assay (human NTCP [1]; [3]): 0.519 | Ranking score (human NTCP [1]; [4]): 842.122 | B-score binding assay (human NTCP [2]; [5]): 0.147

NC(=O)c1ncn([C@@H]2O[C@H](CO)[C@@H](O)[C@H]2O)n1 [Ribavirin]
B-score functional assay (human NTCP [1]; [3]): 0.312 | Ranking score (human NTCP [1]; [4]): 712.803 | B-score binding assay (human NTCP [2]; [5]): -0.029

NC[C@H]1O[C@H](O[C@H]2[C@H](O[C@@H]3O[C@H](CO)[C@@H](O)[C@H]3O)[C@@H](O)[C@H](N)C[C@@H]2N)[C@H](N)[C@@H](O)[C@@H]1O.O=S(=O)(O)O [Ribostamycin sulfate salt]
B-score functional assay (human NTCP [1]; [6]): 0.797 | Ranking score (human NTCP [1]; [7]): 1035.72 | B-score binding assay (human NTCP [2]; [8]): 1.097

CO[C@H]1/C=C/O[C@@]2(C)Oc3c(C)c(O)c4c(c3C2=O)C2=NC3(CCN(CC(C)C)CC3)NC2=C(NC(=O)/C(C)=C\C=C\[C@H](C)[C@H](O)[C@@H](C)[C@@H](O)[C@@H](C)[C@H](OC(C)=O)[C@@H]1C)C4=O [Rifabutin]
B-score functional assay (human NTCP [1]; [3]): 1.309 | Ranking score (human NTCP [1]; [4]): 731.029 | B-score binding assay (human NTCP [2]; [5]): -0.23

CC(N)C12CC3CC(CC(C3)C1)C2 (centres unmarked) [Rimantadine Hydrochloride]
B-score functional assay (human NTCP [1]; [3]): 0.074 | Ranking score (human NTCP [1]; [4]): 753.923 | B-score binding assay (human NTCP [2]; [5]): 0.171

CCC(=O)[C@@]1(C)[C@H](C)C[C@H]2[C@@H]3CCC4=CC(=O)C=C[C@]4(C)[C@H]3[C@@H](O)C[C@@]21C [Rimexolone]
Ranking score (human NTCP [1]; [9]): 362.647 | B-score functional assay (human NTCP [1]; [10]): -0.597 | B-score binding assay (human NTCP [2]; [11]): -0.495
